In US12098184B2, “G protein-coupled receptor (GPCR) ligand assay” (REGENTS OF THE UNIVERSITY OF MINNESOTA, priority 2017, dated 2024):
Bridge positions count the residues as written; N and C are the ends. Ends that are not written are not given here.

Assays:
α1AR-Ipep sensor = conditions: bicine-mediated GPMVs, 100 μM
V1R-Qpep sensor = experiment: FRET measurement with GPMV-V1R-Qpep sensors; assay type: biochemical; conditions: bicine-mediated GPMVs, 100 nM

| Molecule | ΔFRET level with full agonist (α1AR-Ipep sensor) | ΔFRET level with full agonist (V1R-Qpep sensor) |
| --- | --- | --- |
| CNC[C@H](O)c1ccc(O)c(O)c1 [epinephrine] | comparable to those obtained in the other experiments described herein |  |
| [Arg^8]vasopressin (CYFQNCPRG-NH2; disulfide 1-6) [[Arg^8]vasopressin (AVP), full agonist of V1R] |  | comparable to those obtained in the other experiments described herein |
